Assay results reported in the NIST ThermoML archive (doi:10.1016/j.jct.2015.08.014).
± gives the expanded uncertainty stated by the source.

Assay: xn = mol fraction of the nth substance listed
Settings: 100 kPa, Liquid; for electrical conductivity: Alternating current cell with electrodes; for mass density: Vibrating tube method; for viscosity: Capillary tube (Ostwald / Ubbelohde) method

CCCC[N+]1(C)CCCC1.N#CN=C=[N-] [1-butyl-1-methylpyrrolidinium dicyanamide] + O=C1CCCO1
electrical conductivity (273.15 K, Frequency=0.00892857 MHz, x1 = 0.9013): 0.563 ± 0.006 S/m | electrical conductivity (273.15 K, Frequency=0.00892857 MHz, x1 = 1): 0.523 ± 0.005 S/m | electrical conductivity (273.15 K, Frequency=0.00961538 MHz, x1 = 0.0463): 0.978 ± 0.016 S/m | electrical conductivity (273.15 K, Frequency=0.00961538 MHz, x1 = 0.0987): 1.43 ± 0.017 S/m | electrical conductivity (273.15 K, Frequency=0.00961538 MHz, x1 = 0.1449): 1.57 ± 0.016 S/m | electrical conductivity (273.15 K, Frequency=0.00961538 MHz, x1 = 0.1859): 1.635 ± 0.016 S/m | electrical conductivity (273.15 K, Frequency=0.00961538 MHz, x1 = 0.2493): 1.517 ± 0.015 S/m | electrical conductivity (273.15 K, Frequency=0.00961538 MHz, x1 = 0.3029): 1.42 ± 0.015 S/m | electrical conductivity (273.15 K, Frequency=0.00961538 MHz, x1 = 0.3845): 1.25 ± 0.013 S/m | electrical conductivity (273.15 K, Frequency=0.00961538 MHz, x1 = 0.4985): 1.03 ± 0.011 S/m | electrical conductivity (273.15 K, Frequency=0.00961538 MHz, x1 = 0.6954): 0.742 ± 0.008 S/m | electrical conductivity (273.15 K, Frequency=0.00961538 MHz, x1 = 0.9013): 0.563 ± 0.006 S/m | electrical conductivity (273.15 K, Frequency=0.00961538 MHz, x1 = 1): 0.523 ± 0.005 S/m | electrical conductivity (273.15 K, Frequency=0.01 MHz, x1 = 0.0463): 0.978 ± 0.016 S/m | electrical conductivity (273.15 K, Frequency=0.01 MHz, x1 = 0.0987): 1.43 ± 0.017 S/m | electrical conductivity (273.15 K, Frequency=0.01 MHz, x1 = 0.1449): 1.57 ± 0.016 S/m | electrical conductivity (273.15 K, Frequency=0.01 MHz, x1 = 0.1859): 1.635 ± 0.016 S/m | electrical conductivity (273.15 K, Frequency=0.01 MHz, x1 = 0.2493): 1.517 ± 0.015 S/m | electrical conductivity (273.15 K, Frequency=0.01 MHz, x1 = 0.3029): 1.42 ± 0.015 S/m | electrical conductivity (273.15 K, Frequency=0.01 MHz, x1 = 0.3845): 1.25 ± 0.013 S/m | electrical conductivity (273.15 K, Frequency=0.01 MHz, x1 = 0.4985): 1.03 ± 0.011 S/m | electrical conductivity (273.15 K, Frequency=0.01 MHz, x1 = 0.6954): 0.742 ± 0.008 S/m | electrical conductivity (273.15 K, Frequency=0.01 MHz, x1 = 0.9013): 0.563 ± 0.006 S/m | electrical conductivity (273.15 K, Frequency=0.01 MHz, x1 = 1): 0.523 ± 0.005 S/m | mass density (273.15 K, x1 = 0.0987): 1124.75 ± 9 kg/m3 | mass density (273.15 K, x1 = 0.1859): 1107.12 ± 8.9 kg/m3 | mass density (273.15 K, x1 = 0.3029): 1087.92 ± 8.7 kg/m3 | mass density (273.15 K, x1 = 0.4985): 1063.96 ± 8.5 kg/m3 | mass density (273.15 K, x1 = 0.6954): 1046.52 ± 8.4 kg/m3 | mass density (273.15 K, x1 = 0.9013): 1032.97 ± 8.3 kg/m3 | mass density (273.15 K, x1 = 1): 1027.69 ± 8.3 kg/m3 | electrical conductivity (283.15 K, x1 = 0.0463): 1.17 ± 0.02 S/m | electrical conductivity (283.15 K, x1 = 0.0987): 1.73 ± 0.021 S/m | electrical conductivity (283.15 K, x1 = 0.1449): 1.93 ± 0.02 S/m | electrical conductivity (283.15 K, x1 = 0.1859): 2.028 ± 0.02 S/m | electrical conductivity (283.15 K, x1 = 0.2493): 1.926 ± 0.019 S/m | electrical conductivity (283.15 K, x1 = 0.3029): 1.84 ± 0.019 S/m | electrical conductivity (283.15 K, x1 = 0.3845): 1.66 ± 0.017 S/m | electrical conductivity (283.15 K, x1 = 0.4985): 1.407 ± 0.014 S/m | electrical conductivity (283.15 K, x1 = 0.6954): 1.07 ± 0.011 S/m | electrical conductivity (283.15 K, x1 = 0.9013): 0.849 ± 0.009 S/m | electrical conductivity (283.15 K, x1 = 1): 0.786 ± 0.008 S/m | viscosity (283.15 K, x1 = 0.0987): 3.75 ± 0.08 mPa·s | viscosity (283.15 K, x1 = 0.1859): 5.58 ± 0.13 mPa·s | viscosity (283.15 K, x1 = 0.3029): 8.99 ± 0.2 mPa·s | viscosity (283.15 K, x1 = 0.4985): 17.71 ± 0.39 mPa·s | viscosity (283.15 K, x1 = 0.6954): 30.79 ± 0.69 mPa·s | viscosity (283.15 K, x1 = 0.9013): 49.24 ± 1.1 mPa·s | viscosity (283.15 K, x1 = 1): 59.6 ± 1.4 mPa·s | electrical conductivity (283.15 K, Frequency=0.0005 MHz, x1 = 0.0463): 1.16 ± 0.02 S/m | electrical conductivity (283.15 K, Frequency=0.0005 MHz, x1 = 0.0987): 1.73 ± 0.021 S/m | electrical conductivity (283.15 K, Frequency=0.0005 MHz, x1 = 0.1449): 1.92 ± 0.02 S/m | electrical conductivity (283.15 K, Frequency=0.0005 MHz, x1 = 0.1859): 2.018 ± 0.02 S/m | electrical conductivity (283.15 K, Frequency=0.0005 MHz, x1 = 0.2493): 1.921 ± 0.019 S/m | electrical conductivity (283.15 K, Frequency=0.0005 MHz, x1 = 0.3029): 1.84 ± 0.019 S/m | electrical conductivity (283.15 K, Frequency=0.0005 MHz, x1 = 0.3845): 1.65 ± 0.017 S/m | electrical conductivity (283.15 K, Frequency=0.0005 MHz, x1 = 0.4985): 1.407 ± 0.014 S/m | electrical conductivity (283.15 K, Frequency=0.0005 MHz, x1 = 0.6954): 1.07 ± 0.01 S/m | electrical conductivity (283.15 K, Frequency=0.0005 MHz, x1 = 0.9013): 0.849 ± 0.009 S/m | electrical conductivity (283.15 K, Frequency=0.0005 MHz, x1 = 1): 0.786 ± 0.008 S/m | electrical conductivity (283.15 K, Frequency=0.001 MHz, x1 = 0.0463): 1.16 ± 0.02 S/m | electrical conductivity (283.15 K, Frequency=0.001 MHz, x1 = 0.0987): 1.73 ± 0.021 S/m | electrical conductivity (283.15 K, Frequency=0.001 MHz, x1 = 0.1449): 1.92 ± 0.02 S/m | electrical conductivity (283.15 K, Frequency=0.001 MHz, x1 = 0.1859): 2.027 ± 0.02 S/m | electrical conductivity (283.15 K, Frequency=0.001 MHz, x1 = 0.2493): 1.923 ± 0.019 S/m | electrical conductivity (283.15 K, Frequency=0.001 MHz, x1 = 0.3029): 1.84 ± 0.019 S/m | electrical conductivity (283.15 K, Frequency=0.001 MHz, x1 = 0.3845): 1.65 ± 0.017 S/m | electrical conductivity (283.15 K, Frequency=0.001 MHz, x1 = 0.4985): 1.407 ± 0.014 S/m | electrical conductivity (283.15 K, Frequency=0.001 MHz, x1 = 0.6954): 1.07 ± 0.01 S/m | electrical conductivity (283.15 K, Frequency=0.001 MHz, x1 = 0.9013): 0.849 ± 0.009 S/m | electrical conductivity (283.15 K, Frequency=0.001 MHz, x1 = 1): 0.786 ± 0.008 S/m | electrical conductivity (283.15 K, Frequency=0.0015 MHz, x1 = 0.0463): 1.17 ± 0.02 S/m | electrical conductivity (283.15 K, Frequency=0.0015 MHz, x1 = 0.0987): 1.73 ± 0.021 S/m | electrical conductivity (283.15 K, Frequency=0.0015 MHz, x1 = 0.1449): 1.92 ± 0.02 S/m | electrical conductivity (283.15 K, Frequency=0.0015 MHz, x1 = 0.1859): 2.027 ± 0.02 S/m | electrical conductivity (283.15 K, Frequency=0.0015 MHz, x1 = 0.2493): 1.924 ± 0.019 S/m | electrical conductivity (283.15 K, Frequency=0.0015 MHz, x1 = 0.3029): 1.84 ± 0.019 S/m | electrical conductivity (283.15 K, Frequency=0.0015 MHz, x1 = 0.3845): 1.66 ± 0.017 S/m | electrical conductivity (283.15 K, Frequency=0.0015 MHz, x1 = 0.4985): 1.407 ± 0.014 S/m | electrical conductivity (283.15 K, Frequency=0.0015 MHz, x1 = 0.6954): 1.07 ± 0.01 S/m | electrical conductivity (283.15 K, Frequency=0.0015 MHz, x1 = 0.9013): 0.849 ± 0.009 S/m | electrical conductivity (283.15 K, Frequency=0.0015 MHz, x1 = 1): 0.786 ± 0.008 S/m | electrical conductivity (283.15 K, Frequency=0.002 MHz, x1 = 0.0463): 1.17 ± 0.02 S/m | electrical conductivity (283.15 K, Frequency=0.002 MHz, x1 = 0.0987): 1.73 ± 0.021 S/m | electrical conductivity (283.15 K, Frequency=0.002 MHz, x1 = 0.1449): 1.92 ± 0.02 S/m | electrical conductivity (283.15 K, Frequency=0.002 MHz, x1 = 0.1859): 2.027 ± 0.02 S/m | electrical conductivity (283.15 K, Frequency=0.002 MHz, x1 = 0.2493): 1.925 ± 0.019 S/m | electrical conductivity (283.15 K, Frequency=0.002 MHz, x1 = 0.3029): 1.84 ± 0.019 S/m | electrical conductivity (283.15 K, Frequency=0.002 MHz, x1 = 0.3845): 1.66 ± 0.017 S/m | electrical conductivity (283.15 K, Frequency=0.002 MHz, x1 = 0.4985): 1.407 ± 0.014 S/m | electrical conductivity (283.15 K, Frequency=0.002 MHz, x1 = 0.6954): 1.07 ± 0.01 S/m | electrical conductivity (283.15 K, Frequency=0.002 MHz, x1 = 0.9013): 0.849 ± 0.009 S/m | electrical conductivity (283.15 K, Frequency=0.002 MHz, x1 = 1): 0.786 ± 0.008 S/m | electrical conductivity (283.15 K, Frequency=0.0025 MHz, x1 = 0.0463): 1.17 ± 0.02 S/m | electrical conductivity (283.15 K, Frequency=0.0025 MHz, x1 = 0.0987): 1.73 ± 0.021 S/m | electrical conductivity (283.15 K, Frequency=0.0025 MHz, x1 = 0.1449): 1.93 ± 0.02 S/m | electrical conductivity (283.15 K, Frequency=0.0025 MHz, x1 = 0.1859): 2.028 ± 0.02 S/m | electrical conductivity (283.15 K, Frequency=0.0025 MHz, x1 = 0.2493): 1.925 ± 0.019 S/m | electrical conductivity (283.15 K, Frequency=0.0025 MHz, x1 = 0.3029): 1.84 ± 0.019 S/m | electrical conductivity (283.15 K, Frequency=0.0025 MHz, x1 = 0.3845): 1.66 ± 0.017 S/m | electrical conductivity (283.15 K, Frequency=0.0025 MHz, x1 = 0.4985): 1.407 ± 0.014 S/m | electrical conductivity (283.15 K, Frequency=0.0025 MHz, x1 = 0.6954): 1.07 ± 0.01 S/m | electrical conductivity (283.15 K, Frequency=0.0025 MHz, x1 = 0.9013): 0.849 ± 0.009 S/m | electrical conductivity (283.15 K, Frequency=0.0025 MHz, x1 = 1): 0.786 ± 0.008 S/m | electrical conductivity (283.15 K, Frequency=0.003 MHz, x1 = 0.0463): 1.17 ± 0.02 S/m | electrical conductivity (283.15 K, Frequency=0.003 MHz, x1 = 0.0987): 1.73 ± 0.021 S/m | electrical conductivity (283.15 K, Frequency=0.003 MHz, x1 = 0.1449): 1.93 ± 0.02 S/m
